“Also recorded” adds a separate entry of the source.
How the values were obtained:
[1] = system: DAOY medulloblastoma cells; assay: DAOY medulloblastoma cells, MTT assay and light microscopy; format: cell-based
Protocol: The compound ART-Phe-Sal was tested on DAOY medulloblastoma cells using the MTT assay. DAOY Medulloblastoma cells (5,000 cells/200 μL) was seeded on a 96 well plate and incubated for 24 h at 37° C. Cell culture medium was removed after 24 h and 150 μL of medium with treatment was added. Each experimental treatment had holo-Tf (20 μg/well). Treatment assay was viewed under light microscope after 24 h.
Treatment medium was removed after 48 h, and 100 μL of cell medium was added. MTT Reagent (10 μL, 12 mM) was added to each well. This solution was incubated at 37° C. for 4 h. Isopropanol (100 μL) was added to each well to lyse the cells, which were then incubated at 4° C. for 30 m. After incubation each well was plunged (3×200 μL) to ensure the cells were lysed. The incubated medium with MTT reagent was then centrifuged at 13,000 RPM in an eppendorph centrifuge for 3 minutes at room temperature. 100 μL of supernatant was read in a plate reader at λ=570 nm. FIG. 13 compares the effect of dihydroartemisinin (DHA) and ART-Phe-Sal on DAOY medulloblastoma cell line. The concentration of holo-Tf was 1.7 μM.

[2] = system: Molt-4 human leukemia cells; assay: Cell count of Molt-4 human leukemia cells over time; format: cell-based; details: FIG. 11; [ART-Phe-Sal]=10 mM, [DHA]=10 μM, [ART-Tf]=12 μM; cells counted at different times
Protocol: Molt-4-lymphoblastoid cells were purchased from the American Type Culture Collection (Rockville, Md.). They are acute lympoblastic leukemia cells from human peripheral blood. Cultures were maintained in RPMI-1640 (Gibco, Long Island, N.Y.) supplemented with 10% fetal bovine serum (Hyclone, New Haven, Conn.). Cells were cultured at 37° C. in 5% CO2/95% air and 100% humidity, and were split 1:2 at a concentration of approximately 1×10^6/mL. Approximate cell numbers before experiment were between 150×10^3 to 300×10^3 per mL.
FIG. 11 compares the effects of ART-Phe-Sal, DHA, and artemisinin-tagged holotransferrin (ART-Tf) on Molt-4 human leukemia cell.

CC1CCC2C(C)C(OCc3ccc(C(=O)NN=Cc4ccccc4O)cc3)OC3OC4(C)CCC1C32OO4 (stereo not drawn) [ART-Phe-Sal, N′-(2-hydroxybenzylidene)-4-(dihydroxyartemisinin-methyl)-phenyl carbohydrazide]
activity against DAOY medulloblastoma cells ([1]; FIG. 13, MTT assay, 48 h treatment, holo-Tf 1.7 μM): active against DAOY medulloblastoma cells
cell shrinkage under light microscope ([1]; after 24 h treatment, each treatment had holo-Tf (20 μg/well)): Moderate cell shrinkage
effect on Molt-4 human leukemia cells (cell count, words) [2]: can effectively kill human leukemia cells; also recorded: more potent than either dihydroartemisinin (DHA) or artemisinin-tagged holotransferrin (ART-Tf)
